# Assay results as given in patent US10654834B2 (Venenum Biodesign, LLC, priority 2016, dated 2020).
# pEC50: −log10 of the molar value.
# Tests used:
# Format in all cases: cell-based
# mouse TGR5 receptor = biological target: T1, mouse TGR5 receptor (Mus musculus, UniProt Q80SS6); assay: Mouse TGR5 HTRF cAMP production assay (HEK293-EBNA cells, Cisbio cAMP HiRange kit); details: HEK293-EBNA cells overexpressing mouse TGR5, HTRF cAMP assay
# T1 construct: host or cells: HEK293-EBNA (293 c18, ATCC CRL10852)
# T1 sequence (Q80SS6 1-329): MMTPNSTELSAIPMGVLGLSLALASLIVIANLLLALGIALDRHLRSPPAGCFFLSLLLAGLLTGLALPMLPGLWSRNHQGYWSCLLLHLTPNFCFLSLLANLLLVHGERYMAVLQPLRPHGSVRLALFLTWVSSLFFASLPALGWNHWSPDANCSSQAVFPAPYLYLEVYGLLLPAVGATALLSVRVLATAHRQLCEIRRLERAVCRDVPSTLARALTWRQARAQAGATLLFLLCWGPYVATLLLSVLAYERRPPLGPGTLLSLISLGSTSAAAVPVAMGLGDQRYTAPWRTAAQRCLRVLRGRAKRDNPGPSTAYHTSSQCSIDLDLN
# Procedure, shortened: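 HEK293-EBNA cells stably expressing mouse TGR5 (episomal vector) were suspended in serum-free DMEM with 500 μM IBMX and exposed to 12-point half-log compound dilutions for 1 h at room temperature. cAMP was detected by HTRF (d2-cAMP/anti-cAMP cryptate, 1 h, room temperature), giving EC50 from duplicates.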
# human TGR5 receptor = biological target: T2, human TGR5 receptor (Homo sapiens, UniProt Q8TDU6); assay: Human TGR5 cAMP production assay (hTGR5-CHO cells, DiscoveRx cAMP XS+ kit); details: luminescent cAMP assay, read-out: Human TGR5 Lum. cAMP Activity (EC50)
# T2 construct: host or cells: CHO-K1 (hTGR5-CHO)
# T2 sequence (Q8TDU6 1-330): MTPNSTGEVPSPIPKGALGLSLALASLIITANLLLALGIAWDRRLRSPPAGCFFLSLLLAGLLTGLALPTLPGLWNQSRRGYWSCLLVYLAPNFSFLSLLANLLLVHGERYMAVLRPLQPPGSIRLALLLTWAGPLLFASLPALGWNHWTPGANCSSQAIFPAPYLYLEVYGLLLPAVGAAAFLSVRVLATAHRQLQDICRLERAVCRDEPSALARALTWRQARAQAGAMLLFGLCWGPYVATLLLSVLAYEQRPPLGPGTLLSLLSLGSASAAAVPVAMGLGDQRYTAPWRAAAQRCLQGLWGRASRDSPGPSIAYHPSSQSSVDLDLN
# Procedure, shortened: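 CHO-K1 cells stably expressing hTGR5, in PBS with IBMX and cAMP antibody, treated with half-log compound dilutions for 1 h at room temperature. cAMP measured by enzyme-fragment complementation luminescence after overnight detection; EC50 values reported.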
# Mouse STC-1 cells = assay: STC-1 GLP-1 assay (GLP-1 secretion); details: Mouse STC-1 cells, GLP-1 secretion, 2 h; read-out: Mouse STC-1 HTRF GLP-1 Activity (EC50)
# Procedure: Compounds of the present invention were evaluated for their ability to induce GLP-1 production in mouse intestinal neuroendocrine tumor cells.
# Mouse STC-1 cells were cultured and maintained in high glucose DMEM (Sigma #5796) supplemented with 15% horse serum, 5% Fetal Bovine Serum (FBS), 1%° penicillin/streptomycin, and 2 mM L-alanine L-glutamine (GlutaMax). Two days prior to analysis of GLP-1 secretion cells were harvested using Accutase (Sigma), spun down then resuspended in high glucose DMEM media containing 2 mM L-alanine L-glutamine (GlutaMax), 10% charcoal-dextran stripped FBS, and 50 μg/mL Gentamicin, at a density of 100,000° cells/mL. 100 μL of cell suspension was added to each well of a 96-well Poly-D-Lysine coated culture plate (Sigma; cat #2382493) and was incubated at 37° C. with 5% CO2.
# Compounds were initially diluted in 100% DMSO (12-point serial dilution by half logs) in a 96-well plate and then were further diluted 1:500 in Hanks' Balanced Salt Solution (HBSS) containing protease inhibitor cocktail, DPP-IV inhibitor, and 0.1% fatty acid free bovine serum albumin. On the day of the experiment cells were washed once with HBSS. After wash, 100 μL of test compound was added to each well. The plate was incubated at 37° C. with 5% CO2 for 2° h. Supernatants were collected and GLP-1 secretion was measured using the Cisbio™ Active GLP-1 HTRF Assay Kit (CisBio). Briefly, Anti-GLP-1-d2 conjugate and Anti-GLP-1 Terbium Cryptate conjugate stock solutions were prepared as per kit instructions. The two solutions were pre-mixed and 10 μL were transferred to a 384-well low volume plate (Greiner; cat #784075). 10 μL of collected supernatants were added to wells already containing the conjugate solution. The plate was covered and incubated at room temperature overnight. The plate was read on an Envision™ plate reader (PerkinElmer).
# In Table 53, EC50 values were obtained from the STC-1 GLP-1 production assay for compounds of the present invention are summarized.
pEC50 (mouse TGR5 receptor),pEC50 (human TGR5 receptor),pEC50 (Mouse STC-1 cells),SMILES
> 7.00,> 7.00,> 7.00,"COc1cc(C(F)(F)F)ccc1CCNC(=O)[C@@H]1CCN1c1cc(N2CCC(CCCC(=O)O)CC2)nc(C(F)(F)F)n1 [Compound 240, (S)-4-(1-(6-(2-((2-methoxy-4-(trifluoromethyl)phenethyl)carbamoyl)azetidin-1-yl)-2-(trifluoromethyl)pyrimidin-4-yl)piperidin-4-yl)butanoic acid]"
> 7.00,> 7.00,> 7.00,"CCOC(=O)CCNC(=O)NCCC1CCN(c2cc(N3CCC[C@@H](C(=O)NCCc4ccc(C#N)cc4)C3)nc(C(F)(F)F)n2)CC1 [Compound 346, (R)-ethyl 3-(3-(2-(1-(6-(3-((4-cyanophenethyl)carbamoyl)piperidin-1-yl)-2-(trifluoromethyl)pyrimidin-4-yl)piperidin-4-yl)ethyl)ureido)propanoate]"
> 7.00,> 7.00,6.00 to 7.00,N#CCCN1CCN(c2cc(N3CCC[C@H]3C(=O)NCCc3ccc(C(F)(F)F)cc3)nc(C(F)(F)F)n2)CC1 [Compound 10]
> 7.00,> 7.00,6.00 to 7.00,"N#CCCC1CCN(c2cc(N3CC[C@H]3C(=O)NCCc3ccc(C#N)cc3)nc(C(F)(F)F)n2)CC1 [Compound 230, (S)-1-(6-(4-(2-cyanoethyl)piperidin-1-yl)-2-(trifluoromethyl)pyrimidin-4-yl)-N-(4-cyanophenethyl)azetidine-2-carboxamide]"
> 7.00,> 7.00,6.00 to 7.00,"CN(C)CCC1CCN(c2cc(N3CC[C@H]3C(=O)NCCc3ccc(C#N)cc3)nc(C(F)(F)F)n2)CC1 [Compound 228, (S)-N-(4-cyanophenethyl)-1-(6-(4-(2-(dimethylamino)ethyl)piperidin-1-yl)-2-(trifluoromethyl)pyrimidin-4-yl)azetidine-2-carboxamide]"
> 7.00,> 7.00,6.00 to 7.00,"N#Cc1ccc(CCNC(=O)[C@@H]2CCCN2c2cc(N3CCC(CCNS(=O)(=O)CCNC(=O)NCCC(=O)O)CC3)nc(C(F)(F)F)n2)cc1 [Compound 371, (S)-3-(3-(3-((2-(1-(6-(2-((4-cyanophenethyl)carbamoyl)pyrrolidin-1-yl)-2-(trifluoromethyl)pyrimidin-4-yl)piperidin-4-yl)ethyl)amino)-2-sulfonyl)ethylureido)propanoic acid]"
> 7.00,> 7.00,6.00 to 7.00,N#Cc1ccc(CCNC(=O)[C@@H]2CCCN2c2cc(N3CCC(CO)CC3)cc(C(F)(F)F)n2)cc1 [Compound 38]
> 7.00,> 7.00,6.00 to 7.00,"N#Cc1ccc(CCNC(=O)[C@@H]2CCN2c2cc(N3CCC(CCC(=O)O)CC3)nc(C(F)(F)F)n2)cc1 [Compound 227, (S)-3-(1-(6-(2-((4-cyanophenethyl)carbamoyl)azetidin-1-yl)-2-(trifluoromethyl)pyrimidin-4-yl)piperidin-4-yl)propanoic acid]"
> 7.00,> 7.00,6.00 to 7.00,"COc1cc(C(F)(F)F)ccc1CCNC(=O)[C@@H]1CCN1c1cc(N2CCC(CCO)CC2)nc(C(F)(F)F)n1 [Compound 238, (5)-1-(6-(4-(2-hydroxyethyl)piperidin-1-yl)-2-(trifluoromethyl)pyrimidin-4-yl)-N-(2-methoxy-4-(trifluoromethyl)phenethyl)azetidine-2-carboxamide]"
> 7.00,> 7.00,6.00 to 7.00,"CN(C)CCN1CCN(c2cc(N3CCC[C@@H](C(=O)NCCc4ccc(C#N)cc4)C3)nc(C(F)(F)F)n2)CC1 [Compound 333, (R)-N-(4-cyanophenethyl)-1-(6-(4-(2-(dimethylamino)ethyl)piperazin-1-yl)-2-(trifluoromethyl)pyrimidin-4-yl)piperidine-3-carboxamide]"
